Reference: article PMC6348443 (Journal of Medicinal Chemistry, 2018)
“Also recorded” adds a separate entry of the source. Where a name gives a salt, the structure may show the parent alone. Read-outs that look alike come from different tables or passages of the source.

Columns and labels:
KOR [1] = biological target: T1, KOR (Homo sapiens, UniProt P41145); assay: [35S]GTPγS binding assay, CHO-hKOR membranes; assay type: biochemical; settings: for EC50: [35S]GTPγS, CHO human KOR membranes, read-out: KOR EC50; for functional profile at KOR (full/partial agonist): partial agonist <85% of the response to U69,593; for Emax: relative to reference full agonist U69,593, read-out: KOR % stim.
T1 construct: host or cells: CHO (CHO-hKOR)

DOR [2] = biological target: T2, DOR (Homo sapiens, UniProt P41143); assay: [35S]GTPγS binding assay, CHO-hDOR membranes; assay type: biochemical; settings: for EC50: [35S]GTPγS, CHO human DOR membranes; for Emax: relative to reference full agonist DPDPE, read-out: DOR % stim.; for functional profile at DOR (full/partial agonist): full agonist ≥85% of the response to DPDPE
T2 construct: host or cells: CHO (CHO-hDOR)

[3] = tested on: peripheral opioid receptors; assay: antagonism by naloxone methiodide in the acetic acid-induced writhing assay; assay type: in vivo, mouse; settings: sc co-administration with naloxone methiodide 1 mg/kg; agonist 50 or 200 μg/kg sc; 30 min
From the text: To determine whether targeted 6-amino acid and 6-dipeptide analogues inhibit writhing behavior in mice through peripheral opioid receptors activation, we used naloxone methiodide.[27]
Values are shown as mean of writhes ± SEM (n = 6–7 mice per group). ***P < 0.001 vs control group; ^#P < 0.05, ^##P < 0.01 and ^###P < 0.001 vs agonist treated group, ANOVA with Tukey’s post hoc test.
Writhing was induced in male CD1 mice by ip injection of a 0.6% acetic acid aqueous solution as described previously.[48],[62] Groups of mice were administered sc different doses of test compound or saline (control), and 5 min prior to testing (25 min after drug or saline), each animal received an ip injection of acetic acid solution. Each mouse was placed in individual transparent Plexiglas chambers, and the number of writhes was counted during a 10 min observation period. […] For the antagonism study, naloxone methiodide was sc co-administered with the respective opioid agonist, and writhing was assessed as described above.

MOR [4] = biological target: T3, MOR (Homo sapiens, UniProt P35372); assay: [35S]GTPγS binding assay, CHO-hMOR membranes; assay type: biochemical; settings: for Emax: relative to reference full agonist DAMGO, read-out: MOR % stim.; for functional profile at MOR (full/partial agonist): full agonist ≥85% of the response to DAMGO
T3 construct: host or cells: CHO (CHO-hMOR)

male CD1 mice = assay: acetic acid-induced writhing assay after sc administration; assay type: in vivo, mouse; settings: for ED50: Mus musculus, 0.5 h, read-out: ED50 (95% CI), mice, sc, inhibition of writhing 30 min after drug administration
KOR [5] = biological target: T4, KOR (Cavia porcellus, UniProt P41144); assay: competition radioligand binding, guinea-pig brain membranes, [3H]U69,593; settings: for Ki: guinea-pig brain membranes, read-out: opioid receptor binding Ki KOR
T4 construct: Membranes were prepared from Sprague-Dawley rat brains or guinea-pig brains according to the described procedures; tissue Labortierkunde und Laborgenetik, Medizinische Universität Wien; host or cells: guinea-pig brain without cerebella

DOR [6] = biological target: T5, DOR (Rattus norvegicus, UniProt P33533); assay: competition radioligand binding, rat brain membranes, [3H][Ile5,6]deltorphin II; settings: rat brain membranes; read-out: opioid receptor binding Ki DOR
T5 construct: Membranes were prepared from Sprague-Dawley rat brains or guinea-pig brains according to the described procedures; tissue Labortierkunde und Laborgenetik, Medizinische Universität Wien; host or cells: Sprague-Dawley rat brain without cerebella

MOR [7] = biological target: T6, MOR (Rattus norvegicus, UniProt P33535); assay: competition radioligand binding, rat brain membranes, [3H]DAMGO; settings: for Ki: rat brain membranes, read-out: opioid receptor binding Ki MOR; for increase in MOR binding affinity vs comparator: 17b vs 4b, 16a/b vs 7a/b, 22a/b vs 7a, 7b and 9b, 14a vs 14b
T6 construct: Membranes were prepared from Sprague-Dawley rat brains or guinea-pig brains according to the described procedures; tissue Labortierkunde und Laborgenetik, Medizinische Universität Wien; host or cells: Sprague-Dawley rat brain without cerebella

MOR [8] = biological target: T3, MOR; assay: competition radioligand binding, CHO cell membranes expressing human MOR, [3H]DAMGO
Procedure: (§1) Membranes from CHO cells expressing human opioid receptors were prepared in 50 mM Tris-HCl buffer (pH 7.7) according to a previously described procedure.[64] Cells expressing human opioid receptors grown at confluence were removed from the culture plates by scraping, homogenized in 50 mM Tris buffer (pH 7.7), using a Polytron homogenizer, then centrifuged once and washed by an additional centrifugation at 27 000g for 15 min, at 4 °C. The final pellet was resuspended in Tris buffer and stored at −80 °C until use. Protein content of brain and cell membrane preparation homogenates was determined by the method of Bradford using bovine serum albumin as the standard.[65]
(§2) Rat brain membranes were incubated with either [^3H]DAMGO (1 nM, 45 min, 35 °C) or [^3H][Ile^5,6]deltorphin II (0.5 nM, 45 min, 35 °C) for labeling MOR or DOR receptors, respectively. Guinea-pig brain membranes were incubated with [^3H]U69,593 (1 nM, 30 min, 30 °C) for labeling KOR. Binding assays with CHO cell membranes were conducted at 25 °C for 60 min using [^3H]DAMGO (1 nM) or [^3H]diprenorphine (0.2 nM) for labeling MOR or DOR, respectively. Nonspecific binding was determined using 10 μM naloxone (rodent brain) or 1–10 μM of the unlabeled counterpart of each radioligand (CHO cells). Reactions were terminated by rapid filtration through Whatman glass fiber GF/C filters. Filters were washed three times with 5 mL of ice-cold 50 mM Tris-HCl buffer (pH 7.4) using a Brandel M24R cell harvester (Gaithersburg, MD). Radioactivity retained on the filters was counted by liquid scintillation counting using a Beckman Coulter LS6500 (Beckman Coulter Inc., Fullerton, CA). All binding experiments were performed in duplicate and repeated at least three times.
(§3) aDetermined in competition radioligand binding assays using CHO cell membranes expressing
(§4) human MOR and DOR. Values represent the mean ± SEM of three independent experiments each

DOR [9] = biological target: T2, DOR; assay: competition radioligand binding, CHO cell membranes expressing human DOR, [3H]diprenorphine
Procedure: as §1, §2, §3, §4

[10] = [35S]GTPγS, CHO human MOR membranes, read-out: MOR EC50

Compound	EC50 (KOR [1]) [nM]	functional profile at KOR (full/partial agonist) (KOR [1])	Emax (KOR [1]) [%]	EC50 (DOR [2]) [nM]	Emax (DOR [2]) [%]	effect of naloxone methiodide on antinociceptive effect [3]	EC50 (MOR [4]; [10]) [nM]	Emax (MOR [4]) [%]	ED50 (male CD1 mice) [mg/kg]	Ki (KOR [5]) [nM]	Ki (DOR [6]) [nM]	Ki (MOR [7]) [nM]	Ki (MOR [8]) [nM]	Ki (DOR [9]) [nM]	increase in MOR binding affinity vs comparator (MOR [7]; rat brain)	EC50 (MOR [4]) [nM]	functional profile at MOR (full/partial agonist) (MOR [4])	other results
CO[C@@]12CC[C@@H](N[C@@H](Cc3c[nH]c4ccccc34)C(=O)O)[C@@H]3Oc4c(O)ccc5c4[C@@]31CCN(C)[C@@H]2C5 [Compound 10b, (2S)-2-[(4,5α-Epoxy-3-hydroxy-14β-methoxy-17-methylmorphinan-6β-yl)-amino]-3-(1H-indolo-3yl)propionic Acid Dihydrochloride]	181 ± 49	full agonists	87 ± 8	2.18 ± 0.72	96 ± 5	reversed; also recorded: antagonized	1.64 ± 0.43	101 ± 11	0.0927									
CO[C@@]12CC[C@@H](N[C@@H](CCC(=O)O)C(=O)O)[C@@H]3Oc4c(O)ccc5c4[C@@]31CCN(C)[C@@H]2C5.Cl.Cl [Compound 14b, (2S)-2-[(4,5α-Epoxy-3-hydroxy-14β-methoxy-17-methylmorphinan-6β-yl)amino]pentanedioic Acid Dihydrochloride]	2230 ± 238		76 ± 0.7	4.6 ± 1.79	101 ± 3		12.7 ± 4.7	98 ± 4		1250 ± 70	7.64 ± 0.64	11.6 ± 0.7	28.7 ± 7.9	18 ± 3.5				increased agonist potency at DOR vs MOR (DOR [2]; [35S]GTPγS EC50): 2–4 times
CO[C@@]12CC[C@@H](N[C@H](Cc3ccccc3)C(=O)O)[C@@H]3Oc4c(O)ccc5c4[C@@]31CCN(C)[C@@H]2C5 [Compound 17b, (2R)-2-[(4,5α-Epoxy-3-hydroxy-14β-methoxy-17-methyl-morphinan-6β-yl)-amino]-3-phenylpropionic Acid Dihydrochloride]	611 ± 350	full agonists	92 ± 10	1.71 ± 0.78	96 ± 1		0.68 ± 0.29	~80	0.25	139 ± 23	1.19 ± 0.13	1.28 ± 0.38	1.84 ± 0.14	2.17 ± 0.26	ca. 2 times	< 1	partial agonist	
CO[C@@]12CC[C@H](N[C@@H](CCCCN)C(=O)O)[C@@H]3Oc4c(O)ccc5c4[C@@]31CCN(C)[C@@H]2C5 [Compound 8a, (2S)-6-Amino-2-[(4,5α-epoxy-3-hydroxy-14β-methoxy-17-methylmorphinan-6α-yl)amino]hexanoic Acid Trihydrochloride]	118 ± 26		79 ± 13	152 ± 2	106 ± 4	reversed	2.25 ± 0.07	90 ± 8	0.0206									
CO[C@@]12CC[C@H](N[C@@H](Cc3ccccc3)C(=O)O)[C@@H]3Oc4c(O)ccc5c4[C@@]31CCN(C)[C@@H]2C5 [Compound 4a]	219 ± 2	partial agonist	39 ± 12	0.39 ± 0.19	102 ± 2		0.38 ± 0.19	93 ± 8	0.0311				0.81 ± 0.2	3.61 ± 1.2		< 1		increased antinociceptive potency vs comparator (male CD1 mice; writhing assay, 3a vs 3b, 4a vs 4b, 16b vs 7a (so in the source)): 19 times
CO[C@@]12CC[C@@H](N[C@H](C(=O)N[C@@H](Cc3ccc(O)cc3)C(=O)O)C(C)C)[C@@H]3Oc4c(O)ccc5c4[C@@]31CCN(C)[C@@H]2C5 [Compound 22b, (2S)-2-[[(4,5α-Epoxy-3-hydroxy-14β-methoxy-17-methylmorphinan-6β-yl)amino]-(2S)-3-methylbutyrylamino]-3-(4-hydroxyphenyl)propionic Acid]	1880 ± 594		63 ± 0.1	1.56 ± 0.83	89 ± 7		0.16 ± 0.06	~70		390 ± 49	1.38 ± 0.22	0.44 ± 0.01			4 to 7 times		partial agonists	lower KOR affinity vs 6α analogue 22a (KOR [5]; guinea-pig brain): about 6 times; KOR/MOR selectivity ratio (MOR [7]; from Ki, guinea-pig (KOR) and rat (MOR) brain): 886; Ki (MOR [8]; CHO cell membranes expressing human MOR, read-out: Ki MOR): 0.64 ± 0.07 nM; functional profile at DOR (full/partial agonist) (DOR [2]): full agonists; increased MOR potency than 1 (MOR [4]; [35S]GTPγS EC50): 24 times; selectivity for MOR over DOR (MOR [4]; [35S]GTPγS EC50): 10 times; Ki (DOR [9]; CHO cell membranes expressing human DOR, read-out: Ki DOR): 1.39 ± 0.13 nM
CO[C@@]12CCC(N[C@@H](CCC(=O)O)C(=O)O)[C@@H]3Oc4c(O)ccc5c4[C@@]31CCN(C)[C@@H]2C5 (stereo in doubt) [Compound 14a, (2S)-2-[(4,5α-Epoxy-3-hydroxy-14β-methoxy-17-methylmorphinan-6β-yl)-amino]pentanedioic Acid Dihydrochloride]	1170 ± 448		68 ± 5	10.8 ± 2.1	98 ± 3		3.11 ± 1.32	105 ± 3	0.0361	87.2 ± 4.2	9.03 ± 0.7	1.45 ± 0.09	3.29 ± 0.61	24 ± 11.8	8 times			increased KOR affinity vs 6β analogue 14b (KOR [5]; guinea-pig brain): 14 times
CO[C@@]12CC[C@H](N[C@H](Cc3ccccc3)C(=O)O)[C@@H]3Oc4c(O)ccc5c4[C@@]31CCN(C)[C@@H]2C5 [Compound 17a, (2R)-2-[(4,5α-Epoxy-3-hydroxy-14β-methoxy-17-methyl-morphinan-6α-yl)-amino]-3-phenylpropionic Acid Dihydrochloride]	215 ± 32	full agonists	80 ± 11	8.36 ± 0.28	95 ± 10		0.77 ± 0.24	96 ± 4	< 0.02	76.4 ± 9.3	3.69 ± 0.59	0.61 ± 0.01	0.85 ± 0.01	5.26 ± 0.42		< 1		ED50 (95% CI) (male CD1 mice; mice, inhibition of writhing 30 min after drug administration): 18.1 (8.37–39.2) μg/kg
CO[C@@]12CC[C@@H](NCC(=O)NCC(=O)O)[C@@H]3Oc4c(O)ccc5c4[C@@]31CCN(C)[C@@H]2C5 [Compound 23a, 2-[2-[(4,5-Epoxy-3-hydroxy-14β-methoxy-17-methylmorphinan-6β-yl)amino]acetylamino]acetic Acid]	885 ± 298		75 ± 0.7	2.84 ± 1.63	102 ± 7	antagonized	4.39 ± 0.54	85 ± 9	0.104								full agonist	lower affinity at MOR vs 2a (MOR [7]; rat brain): about 5 times; functional profile at DOR (full/partial agonist) (DOR [2]): full agonist; higher antinociceptive potency than morphine (male CD1 mice; writhing assay, mice): 4 times
